Usually CC50 stands for the concentration that lowers cell viability or growth by half.

Values after ≈ are worked out from the molar mass of the structure shown. Ends that are not written are not given here.

The values below come from US11969476B2, “Antibody molecule-drug conjugates and uses thereof” (priority 2020, dated 2024).

One series relates to P. aeruginosa BAA-2113. Details: key: R = Resistant; S = Suspectible; I = Intermediate; NT = Note Tested. As to conditions: strain BAA-2113, isolated from human sputum; cited from earlier work.
In a further series the test system is P. aeruginosa BAA-2114. More on the design: key: R = Resistant; S = Suspectible; I = Intermediate; NT = Note Tested. The following applies: strain BAA-2114, isolated from human sputum; cited from earlier work.
The subject of another series is P. aeruginosa BAA-2109. More on the design: key: R = Resistant; S = Suspectible; I = Intermediate; NT = Note Tested. The following applies: strain BAA-2109, isolated from human sputum; cited from earlier work.
The next series has as its system P. aeruginosa BAA-2110. Details: key: R = Resistant; S = Suspectible; I = Intermediate; NT = Note Tested. The following applies: strain BAA-2110, isolated from human sputum; cited from earlier work.
For another series, the system named is P. aeruginosa BAA-2111. Details: key: R = Resistant; S = Suspectible; I = Intermediate; NT = Note Tested. The following applies: strain BAA-2111, isolated from human sputum; cited from earlier work.
The test system of another series is P. aeruginosa BAA-2112. Details: key: R = Resistant; S = Suspectible; I = Intermediate; NT = Note Tested. The following applies: strain BAA-2112, isolated from human sputum; cited from earlier work.
The subject of a further series is P. aeruginosa BAA-2108. More on the design: key: R = Resistant; S = Suspectible; I = Intermediate; NT = Note Tested. As to conditions: strain BAA-2108, isolated from human sputum; cited from earlier work.
The nature of a further series: in vitro. As to conditions: human, Cytotox CC50.
Series [1] can be described thus: Cytotoxicity to mammalian cells. The following applies: human, 293T cells.
For series [2] the following is noted: LC-MS; 10% human serum (FIG. 8).
Description: Assessment of Serum Stability. […] Twenty μl of each test article was placed in a 2.0 ml round bottom microfuge tube. […] Assay tubes were placed at 37° C. in a rotating rack between time-points. […] Supernatant from each tube was collected and frozen at −20° C. for analysis. Samples were harvested and processed at various time-points up to 6 hours.
For another series, the system named is 293T. Nature of the series: Cytotoxicity to mammalian cells.

For `NCC[C@H](O)C(=O)N[C@@H]1C[C@H](N)[C@@H](O[C@H]2O[C@H](CN)[C@@H](O)[C@H](O)[C@H]2O)[C@H](O)[C@H]1O[C@H]1O[C@H](CO)[C@@H](O)[C@H](N)[C@H]1O` [Amikacin], the antibiotic resistance phenotype entry with P. aeruginosa BAA-2113, with P. aeruginosa BAA-2114, in the series with P. aeruginosa BAA-2109, in the series on P. aeruginosa BAA-2110, in the series on P. aeruginosa BAA-2111 and with P. aeruginosa BAA-2112 was “S” throughout. Besides, the antibiotic resistance phenotype entry with P. aeruginosa BAA-2108 is recorded as “S”.

`CC1(C)S[C@@H]2[C@H](NC(=O)[C@H](N)c3ccccc3)C(=O)N2[C@H]1C(=O)O` [Ampicillin]: the antibiotic resistance phenotype entry with P. aeruginosa BAA-2113, in the series on P. aeruginosa BAA-2114, with P. aeruginosa BAA-2109, with P. aeruginosa BAA-2110, with P. aeruginosa BAA-2111 and in the series with P. aeruginosa BAA-2112 was “R” throughout. The antibiotic resistance phenotype entry with P. aeruginosa BAA-2108 is reported as “R”.

With `CC(=O)OCC1=C(C(=O)O)N2C(=O)[C@@H](NC(=O)Cc3cccs3)[C@H]2SC1` [Cefalotin], the antibiotic resistance phenotype entry in the series on P. aeruginosa BAA-2113, in the series with P. aeruginosa BAA-2114, with P. aeruginosa BAA-2109, with P. aeruginosa BAA-2111, in the series with P. aeruginosa BAA-2112 and in the series on P. aeruginosa BAA-2108 was “R” in each case.

In the case of `Cc1nnc(SCC2=C(C(=O)O)N3C(=O)[C@@H](NC(=O)Cn4cnnn4)[C@H]3SC2)s1` [Cefazolin], the antibiotic resistance phenotype result with P. aeruginosa BAA-2113, with P. aeruginosa BAA-2114, in the series on P. aeruginosa BAA-2109, with P. aeruginosa BAA-2110, in the series on P. aeruginosa BAA-2111 and in the series on P. aeruginosa BAA-2112 was “R” throughout.

With `CO/N=C(\C(=O)N[C@@H]1C(=O)N2C(C(=O)O)=C(COC(C)=O)CS[C@H]12)c1csc(N)n1` [Cefotaxime], the antibiotic resistance phenotype result with P. aeruginosa BAA-2113, with P. aeruginosa BAA-2114, in the series on P. aeruginosa BAA-2109, in the series on P. aeruginosa BAA-2110, with P. aeruginosa BAA-2111 and with P. aeruginosa BAA-2112 was “R” in each case. Moreover, in the series with P. aeruginosa BAA-2108, the antibiotic resistance phenotype entry is “R”.

In the case of `CO[C@@]1(NC(=O)Cc2cccs2)C(=O)N2C(C(=O)O)=C(COC(N)=O)CS[C@@H]21` [Cefoxitin], the antibiotic resistance phenotype result in the series with P. aeruginosa BAA-2113, with P. aeruginosa BAA-2114, in the series with P. aeruginosa BAA-2109, in the series on P. aeruginosa BAA-2110, in the series with P. aeruginosa BAA-2111 and in the series on P. aeruginosa BAA-2112 was “R” each time. In addition, the antibiotic resistance phenotype result in the series with P. aeruginosa BAA-2108 is “R”.

Regarding `CO/N=C(\C(=O)N[C@@H]1C(=O)N2C(C(=O)O)=C(CSc3nc(=O)c(=O)[nH]n3C)CS[C@H]12)c1csc(N)n1` [Ceftriaxone], the antibiotic resistance phenotype entry in the series with P. aeruginosa BAA-2113, with P. aeruginosa BAA-2114, in the series on P. aeruginosa BAA-2109, in the series with P. aeruginosa BAA-2111 and in the series on P. aeruginosa BAA-2112 was “R” each time.

For the compound `CO/N=C(\C(=O)N[C@@H]1C(=O)N2C(C(=O)OC(C)OC(C)=O)=C(COC(N)=O)CS[C@H]12)c1ccco1` (some centres unmarked) [Cefuroxime Axetil], the antibiotic resistance phenotype result in the series on P. aeruginosa BAA-2113, with P. aeruginosa BAA-2114, with P. aeruginosa BAA-2109, in the series with P. aeruginosa BAA-2111, in the series on P. aeruginosa BAA-2112 and in the series on P. aeruginosa BAA-2108 was “R” in each case.

On to `CO/N=C(\C(=O)N[C@@H]1C(=O)N2C(C(=O)O)=C(COC(N)=O)CS[C@H]12)c1ccco1` [Cefuroxime], for which the antibiotic resistance phenotype result in the series with P. aeruginosa BAA-2113, with P. aeruginosa BAA-2114, in the series on P. aeruginosa BAA-2109, in the series with P. aeruginosa BAA-2111, in the series on P. aeruginosa BAA-2112 and with P. aeruginosa BAA-2108 was “R” in each case.

Consider `O=C(O)c1cn(C2CC2)c2cc(N3CCNCC3)c(F)cc2c1=O` [Ciprofloxacin], for which the antibiotic resistance phenotype result is listed as “S” in the series with P. aeruginosa BAA-2113; “R” in the series with P. aeruginosa BAA-2114; “S” in the series with P. aeruginosa BAA-2109; “S” with P. aeruginosa BAA-2110; “S” in the series with P. aeruginosa BAA-2111; “S” in the series on P. aeruginosa BAA-2112. In the series on P. aeruginosa BAA-2108, the antibiotic resistance phenotype result is “S”.

Consider `CC[C@H](C)[C@H](NC(=O)[C@H](CCCCN)NC(=O)[C@H](CCC(=O)O)NC(=O)[C@H](CCCCN)NC(=O)[C@H](CO)NC(=O)[C@H](CCCCN)NC(=O)[C@H](CCCNC(=N)N)NC(=O)[C@H](Cc1ccccc1)NC(=O)[C@H](Cc1ccccc1)NC(=O)[C@H](CC(=O)O)NC(=O)CNC(=O)[C@H](CC(C)C)NC(=O)[C@H](CC(C)C)NC(=O)CNC(=O)CNC(=O)CN)C(=O)NCC(=O)N[C@@H](CCCCN)C(=O)N[C@@H](CCC(=O)O)C(=O)N[C@@H](Cc1ccccc1)C(=O)N[C@@H](CCCCN)C(=O)N[C@@H](CCCNC(=N)N)C(=O)N[C@H](C(=O)N[C@H](C(=O)N[C@@H](CCC(N)=O)C(=O)N[C@@H](CCCNC(=N)N)C(=O)N[C@H](C(=O)N[C@@H](CCCCN)C(=O)N[C@@H](CC(=O)O)C(=O)N[C@@H](Cc1ccccc1)C(=O)N[C@@H](CC(C)C)C(=O)N[C@@H](CCCNC(=N)N)C(=O)N[C@@H](CC(N)=O)C(=O)N[C@@H](CC(C)C)C(=O)N[C@H](C(=O)N1CCC[C@H]1C(=O)N[C@@H](CCCNC(=N)N)C(=O)N[C@H](C(=O)N[C@@H](CCC(=O)O)C(=O)N[C@@H](CO)C(=O)O)[C@@H](C)O)C(C)C)[C@@H](C)CC)C(C)C)[C@@H](C)CC` [Peptide P265], for which it took 90 mg/L (≈ 19.3 µM) to reach half-maximal cytotoxicity in “in vitro” (CC50).

Consider `CN(C)c1cc(NC(=O)CNC(C)(C)C)c(O)c2c1C[C@H]1C[C@H]3[C@H](N(C)C)C(O)=C(C(N)=O)C(=O)[C@@]3(O)C(O)=C1C2=O` [Tigecycline], for which the antibiotic resistance phenotype entry in the series with P. aeruginosa BAA-2113, in the series on P. aeruginosa BAA-2114, with P. aeruginosa BAA-2109, with P. aeruginosa BAA-2110, with P. aeruginosa BAA-2111 and with P. aeruginosa BAA-2112 was “R” each time. Besides, the antibiotic resistance phenotype result in the series with P. aeruginosa BAA-2108 is given as “R”.

Regarding `NC[C@H]1O[C@H](O[C@H]2[C@H](O)[C@@H](O[C@H]3O[C@H](CO)[C@@H](O)[C@H](N)[C@H]3O)[C@H](N)C[C@@H]2N)[C@H](N)C[C@@H]1O` [Tobramycin], the antibiotic resistance phenotype entry in the series on P. aeruginosa BAA-2113, with P. aeruginosa BAA-2114, in the series on P. aeruginosa BAA-2109, in the series with P. aeruginosa BAA-2110, in the series on P. aeruginosa BAA-2111 and with P. aeruginosa BAA-2112 was “S” in each case.

As for Amoxicillin/Clavulanic Acid, the antibiotic resistance phenotype entry with P. aeruginosa BAA-2113, in the series on P. aeruginosa BAA-2114, in the series with P. aeruginosa BAA-2109, in the series with P. aeruginosa BAA-2111, in the series on P. aeruginosa BAA-2112 and in the series on P. aeruginosa BAA-2108 was “R” in each case.

“GGGGIGKFLKKAKKFGKAFVKILKK [Peptide P261]” had a CC50 in [1] of 250 mg/L.

In the case of “GGGGLRKRLRKFRNKIKEKLKKIGQKIQGLLPKLA [Peptide P271]”, it took 250 mg/L to reach half-maximal cytotoxicity in series [1] (Cytotox CC50, concentration at which 50% cytotoxicity of mammalian cells is observed) (CC50).

With “GGGGRFKRFRKKFKKLFKKLSPVIPLLHLG [Peptide P267]”, it took 70 mg/L to reach half-maximal cytotoxicity in the series “in vitro” (CC50).

Consider “GGGKFFRKLKKSVKKRAKEFFKKPRVIGVSIPF [Peptide P297]”, for which the “half-life in the presence of serum” value in series [2] was approximately 20 min. For the same compound, it took 780 mg/L to reach half-maximal cytotoxicity in series [1] (CC50). Also, in the series with 293T, the “cytotoxicity to 293T relative to the MIC” value is on record as approximately 200 fold.

Turning to “GGGKRFKKFFKKLKNSVKKRAKKFFKKPRVIGVSIPF [Peptide P296]”, the CC50 in [1] came to 400 mg/L.

On to Gentamicin, for which the antibiotic resistance phenotype entry is reported as “S” in the series on P. aeruginosa BAA-2113; “S” with P. aeruginosa BAA-2114; “S” with P. aeruginosa BAA-2109; “I” with P. aeruginosa BAA-2110; “S” with P. aeruginosa BAA-2111; “S” in the series on P. aeruginosa BAA-2112. Also, the antibiotic resistance phenotype entry in the series with P. aeruginosa BAA-2108 was “I”.

Regarding Piperacillin/Tazobactam, the antibiotic resistance phenotype result in the series on P. aeruginosa BAA-2113, with P. aeruginosa BAA-2114, in the series with P. aeruginosa BAA-2109, in the series with P. aeruginosa BAA-2111 and in the series on P. aeruginosa BAA-2112 was “S” in each case.

On to Trimethoprim/Sulfamethoxazole, for which the antibiotic resistance phenotype entry with P. aeruginosa BAA-2113, in the series with P. aeruginosa BAA-2114, in the series with P. aeruginosa BAA-2109, in the series with P. aeruginosa BAA-2110, with P. aeruginosa BAA-2111 and in the series on P. aeruginosa BAA-2112 was “R” in each case. Moreover, in the series with P. aeruginosa BAA-2108, the antibiotic resistance phenotype result is reported as “R”.
